These are literature values, as cited in article PMC9780888, “4-Isobutylmethcathinone—A Novel Synthetic Cathinone with High In Vitro Cytotoxicity and Strong Receptor Binding Preference of Enantiomers” (Pharmaceuticals, 2022).

One data set concerns HTR receptor. Set-up: method as in PMID 22897747. Particulars: cited from earlier work.
The subject of a further data set is SERT. Particulars: S- versus R-enantiomer, 13 in b3; cited from earlier work.
The subject of data set [1] is neuronal differentiated SH-SY5Y cells. Set-up: method as in PMID 25624004. Particulars: 24-h exposure, ToxiLight BioAssay ref 30; cited from earlier work.
The next data set deals with HTR2A. Further details: method as in PMID 22897747. To be noted: cited from earlier work.
In another data set the test system is SH-SY5Y cells. Set-up: method as in PMID 31473217. Particulars: 24 h of exposure ref 20; cited from earlier work.
In data set [2] the test system is DAR2-like family receptors vs DAR1-like family of receptors. Particulars: cited from earlier work.

The structures appear in SMILES notation.

For the molecule `CNC(C)Cc1ccc2c(c1)OCO2` (stereo not drawn) [MDMA, 3,4-methylenedioxymethamphetamine], in the data set with HTR receptor, the “HTR receptor binding activity” value is recorded as “has not been demonstrated”. On to `CN[C@@H](C)C(=O)c1ccc(C)cc1` [S-mephedrone], for which the “potency as SERT releaser relative to R-mephedrone” value in the data set with SERT is recorded as 40 times. Regarding `CCCC(C(=O)c1ccccc1)N1CCCC1` (stereo not drawn) [alpha-PVP], in data set [1], the “reported value for mitochondrial dysfunction” value is listed as “above 100 mM”. For the molecule `CNC(C)C(=O)c1ccc(F)cc1` (stereo not drawn) [flephedrone], the HTR2A-binding activity entry with HTR2A is reported as “has been previously described”. On to `CNC(C)C(=O)c1ccccc1` (stereo not drawn) [methcathinone], for which the HTR2A-binding activity entry with HTR2A is listed as “has been previously described”.

Regarding `CCNC(C)Cc1ccc2c(c1)OCO2` (stereo not drawn) [MDEA, 3,4-methylenedioxy-N-ethylamphetamine], in the data set on HTR receptor, the “HTR receptor binding activity” value is given as “has not been demonstrated”. `CNC(C)C(=O)c1ccc(C)c(C)c1` (stereo not drawn) [3,4-DMMC]: in the data set on SH-SY5Y cells, the IC50 is over 1000 µM.

Consider `CNC(C)C(=O)c1ccc(C)cc1` (stereo not drawn) [mephedrone], for which the HTR2A-binding activity entry with HTR2A was “has been previously described”.

As for `NCCc1ccc(O)c(O)c1` [DA, dopamine], in data set [2], the “affinity of DAR2-like family receptors relative to DAR1-like family” value is 10-100 fold.

A word on the IC50: it is the concentration at which inhibition is half-maximal.
